Patent US20100316626A1, “METHODS FOR TREATMENT AND DIAGNOSIS OF PSYCHIATRIC DISORDERS” (THE GOVERNMENT OF THE UNITED STATES OF AMERICA AS …, priority 2006, published 2010)

How the values were obtained:
[1] = test system: basal synaptic transmission in hippocampal slices; experiment: Basal synaptic transmission in acute hippocampal slices (field recordings); assay type: cell-based, mouse; settings: D2-selective inhibitors perfused in hippocampal slices; FIG. 11A
Method: (§1) Acute mouse hippocampal slice preparation: Hippocampal slices from 4 to 5 week old C57BL/6 mice were prepared in ice-cold artificial cerebrospinal fluid (ACSF) and cut on a 1000PLUS Vibratome (VIBRATOME, St. Louis, USA) to a thickness of ˜300 μm.
Electrophysiological recordings in mouse hippocampal slices: A single slice was transferred to a submerged recording chamber continuously perfused at a flow rate of 2 mL/min (30° C.) with recording ACSF (same as cutting ACSF minus the ascorbate, myo-inositol and pyruvate). Recordings were performed in 10 μM bicuculline (Tocris, USA) to block inhibitory activity. […] The AMPAR or NMDAR mediated EPSCs were measured 5 min prior to delivering the TBS, at approximately 20 min after inducing LTP (when the response stabilized), and at 10 and 40 min after commencing NRG-1β1 perfusion. In other experiments NMDAR EPSCs were recorded in potentiated slices prior to and after NRG-1 treatment at +40 mV (plus […] CNQX) to inhibit residual AMPAR currents. Paired-pulse facilitation was analyzed in whole-cell current-clamp recordings with inter-pulse intervals set to 50, 100, 150 and 200 msec.
Peptides corresponding to the splice variants of the EGF-like domains of NRG-1β1 and NRG-1α2 were dissolved in recording ACSF solution to a final concentration 0.1 or 1 nM. […] Data were analyzed for significance using the Student's t-test. […]

[2] = test system: LTP at Schaffer collateral-CA1 synapses; experiment: LTP and LTP depotentiation at Schaffer collateral-CA1 synapses in acute hippocampal slices; assay type: cell-based, mouse; settings: for block of the effects of NRG-1β on LTP by ErbB RTK inhibitors: inhibitor 10 μM applied 10 min prior to NRG-1, FIG. 3D
Method: as §1
Electrophysiological recordings in mouse hippocampal slices: A single slice was transferred to a submerged recording chamber continuously perfused at a flow rate of 2 mL/min (30° C.) with recording ACSF (same as cutting ACSF minus the ascorbate, myo-inositol and pyruvate). Recordings were performed in 10 μM bicuculline (Tocris, USA) to block inhibitory activity. […] A borosilicate two-barrel stimulation electrode (World Precision Instruments, Sarasota, Fla.) with a silver wire (A-M Systems, Carlsberg, Wash.) was filled with oxygenated ACSF recording solution and placed in the stratum radiatum to stimulate the Schaffer collateral/commissural fibers at 0.05 Hz (0.1 msec, 20-40 μA) via a stimulus isolator (A365, World Precision Instruments, Sarasota, Fla.). Data were collected with a Multiclamp 700A amplifier (Axon Instrument, Foster city, CA). The recordings were digitized at a sampling rate of 10 kHz and filtered at 3 kHz. Baseline fEPSP slopes were set to 40-50% of maximum response. Baseline recordings of at least 10 min were obtained once stable basal transmission was observed. LTP was induced using a theta burst stimulation (TBS) protocol that consisted of 5 trains delivered at 0.2 Hz. […] To measure the AMPAR or the NMDAR components of evoked EPSCs, voltage-clamp recordings from CA1 pyramidal neurons were performed at holding potentials of −70 mV to measure the AMPAR component (10 EPSCs during 1 min) or at +40 mV to measure the NMDAR component. The AMPAR or NMDAR mediated EPSCs were measured 5 min prior to delivering the TBS, at approximately 20 min after inducing LTP (when the response stabilized), and at 10 and 40 min after commencing NRG-1β1 perfusion. In other experiments NMDAR EPSCs were recorded in potentiated slices prior to and after NRG-1 treatment at +40 mV (plus […] CNQX) to inhibit residual AMPAR currents. Paired-pulse facilitation was analyzed in whole-cell current-clamp recordings with inter-pulse intervals set to 50, 100, 150 and 200 msec.
Peptides corresponding to the splice variants of the EGF-like domains of NRG-1β1 and NRG-1α2 were dissolved in recording ACSF solution to a final concentration 0.1 or 1 nM. NRG was delivered for 10 min in external recording ACSF solution 20, 30 or 50 min following TBS. The ErbB receptor inhibitors PD158780 (10 μM) and PD168393 (10 μM) were diluted in ACSF solution and applied to the slices 10 min prior to NRG-1 addition to ensure diffusion into the cell and efficient receptor inhibition. […] Data were analyzed for significance using the Student's t-test. […]

ErbB receptors [3] = settings: cited from earlier work
FGF receptor = settings: at μM concentrations; cited from earlier work
[4] = test system: surface seGFP-GluR1 AMPA receptors; experiment: Live imaging of surface seGFP-GluR1 in transfected dissociated hippocampal neurons; assay type: cell-based, rat; settings: PD158780 5 min before and during NRG-1; FIG. 6A
Method: Dissociated hippocampal cultures and chemLTP induction: Hippocampal neuronal cultures from E19 rat pups were prepared as reported previously. C. S. Herrmann et al., Clin Neurophysiol 116: 2719, 2005; A. Fisahn, et al., Nature 394: 186, 1998. Neurons were plated on 12 mm glass coverslips in 24 well plates at a density of 50,000 cells/well. ChemLTP was induced in cultures essential as described previously with minor modifications (Liao et al., 2001; Lu et al., 2001). Briefly, cells grown for 5 days in vitro (DIV5) were switched to medium containing 200 μM APV and maintained in Neurobasal media supplemented with B-27 (Invitrogen) until DIV18 to DIV22. […]
Live imaging in transfected hippocampal neurons of surface seGFP-tagged GluR1 AMPARs. […] Cells were perfused with […] glycine-containing medium used to induce chemLTP prior to capturing images and recorded for 4 min. […] Immediately after quenching with acidic MES buffer, cultures were switched back to 200 μM glycine in HBBSS (pH 7.4) for 2 min to recover the fluorescence. […] Images were detected with a cooled CCD camera (10 mW output, 12 bits, 1344×1024 pixels, Hamamatsu Orca ER) using 400 msec of exposure and 2×2 binning. Fluorescence was determined in 20-μm segments of neuronal processes that were at least 10 μm removed from the neuronal soma. […] Significance was evaluated by 1-way-ANOVA.

PDGF receptor = settings: at μM concentrations; cited from earlier work
ErbB receptors [5] = settings: A431, SK-BR-3 and MDA-MB-453 cells; read-out: IC50 for block of ErbB phosphorylation; cited from earlier work
[6] = test system: A431, SK-BR-3 and MDA-MB-453 cells; settings: cited from earlier work

| block of NRG-1-induced internalization of seGFP-GluR1 [4] | Structure (SMILES) | effect on basal synaptic transmission [1] | effect on NRG-1-evoked LTP depotentiation ([2]; 50 nM, FIG. 11C) | dissociation rate and autophosphorylation inhibition of the receptors (ErbB receptors [3]) | Kd (ErbB receptors [3]; reconstituted receptors in vitro, read-out: affinities (binds competitively with ATP in the pocket)) [nM] | cross-reactivity with FGF receptor (FGF receptor) | cross-reactivity with PDGF receptor (PDGF receptor) | IC50 (ErbB receptors [5]) [nM] | block of the effects of NRG-1β on LTP by ErbB RTK inhibitors [2] | effect on LTP depotentiation elicited by TPS ([2]; two-pathway approach, FIG. 4C,D) | concentration that blocks proliferation [6] [µM] |
| --- | --- | --- | --- | --- | --- | --- | --- | --- | --- | --- | --- |
|  | Clc1ccc(N2CCN(Cc3c[nH]c4ncccc34)CC2)cc1 [L745870] | no effect | prevent NRG-1-evoked LTP depotentiation |  |  |  |  |  |  |  |  |
| completely blocked | CNc1cc2c(Nc3cccc(Br)c3)ncnc2cn1 [PD158780, 4-[(3-Bromophenyl)amino]-6-(methylamino)-pyrido[3,4-d]pyridimine] |  |  | extremely slow (several hours) | 0.1 to 1 | no cross-reactivity | no cross-reactivity | 15 to 50 | completely blocked | block LTP depotentiation | 0.1 to 1 |
|  | C=CC(=O)Nc1ccc2ncnc(Nc3cccc(Br)c3)c2c1 [PD168393, 4-[3(Bromophenyl)amino]-6-acrylamidoquinazoline] |  |  |  |  |  |  |  | completely blocked |  |  |
